Measurements published in patent US11548868B2, “Heterocyclic compounds, compositions comprising heterocyclic compound, and methods of use thereof” (JS INNOPHARM (SHANGHAI) LTD, priority 2017, dated 2023).

Key:
[1] = target: T1, TDO2 in A172 cancer cells (Homo sapiens, UniProt P48775); assay: TDO2 Cellular Assay (kynurenine production in A172 cancer cells); format: cell-based; conditions: L-Trp 1 mM, 24 hours incubation, kynurenine at 490 nm
T1 construct: endogenous in cells; host or cells: A172 cancer cells
Description: A172 cancer cells (3×10^4 per well) in 85 μL DMEM medium containing 10% FBS were seeded in a 96-well plate and incubated at 95% humidity and 5% CO2 at 37° C. for overnight. On the next day, L-Trp solution (10 μL, 1 mM final concentration) and serial dilutions of the test compounds and DMEM medium resulting in a total final volume of 100 μL each well. The test compounds were dissolved in DMSO and successively diluted with pH7.5 butter (with final DMSO concentration of 0.25%) resulting in final concentrations of the test compounds ranging from 0 to 25 μM (0, 2.5, 7.5, 25, 75, 250, 750, 2500, 7500, & 25000 nM). After 24 hours of incubation, 70 uL of the supernatant per well was transferred to a new 96 well plate. 8 μL of trichloroacetic acid (6.1 N) was mixed into each well and incubated at 50° C. for 30 min to hydrolyze N-formylkynurenine to kynurenine. The reaction mixture was then centrifuged for 10 min at 2500 RPM to remove sediments. 50 μL of the supernatant per well was transferred to another 96 well plate and mixed with 50 μL of 2% (w/v) p-dimethylaminobenzaldehyde in acetic acid. The yellow color derived from kynurenine was measured at 490 nm using a microplate reader. Percent inhibition of the test compounds was determined by measuring the decrease in kynurenine as compared to the control of DMSO vehicle, which was calculated by formula of (WC−WT)/WC, where WC is the mean absorbance of the control well minus blank well; WT is the mean absorbance of the test well minus the blank well. Data was analyzed by GraphPad Prism 5 and the IC50 values were obtained by non-linear regression.
(§1) The IC50 values of for Compounds disclosed are listed in Table 2, A′: ≤0.5 μM; B′: >0.5 μM and ≤1 μM; C′: >1.0 μM and ≤5 uM; and D′: >5 μM.

[2] = target: T2, IDO1 in Hela cancer cells (Homo sapiens, UniProt P14902); assay: IDO1 Cellular Assay (kynurenine production in IFN-γ stimulated Hela cancer cells); format: cell-based; conditions: human IFN-γ 50 ng/mL, 48 hours incubation, kynurenine at 490 nm
T2 construct: endogenous in cells; host or cells: Hela cancer cells stimulated with human IFN-γ
Description: Hela cancer cells (5×10^3 per well) with 85 μL DMEM medium containing 10% FBS were seeded in a 96-well plate and incubated at 95% humidity and 5% CO2 at 37° C. for 24 hours. human IFN-γ (10 μL, 50 ng/mL final concentration) and 5 μL serial dilutions of the test compounds were added into each well. The test compounds were dissolved in DMSO, and successively diluted with pH7.5 buffer (with final DMSO concentration of 0.25%) resulting in final concentrations of the test compounds ranging from 0 to 25 μM (0, 2.5, 7.5, 25, 75, 250, 750, 2500, 7500, & 25000 nM). After 48 hours of incubation, 70 uL of the supernatant per well was transferred to a new 96 well plate. Trichloroacetic acid (6.1 N, 8 μL) was mixed into each well and incubated at 50° C. for 30 min to hydrolyze N-formylkynurenine produced by IDO to kynurenine. The reaction mixture was then centrifuged for 10 min at 2500 RPM to remove sediments. 50 μL of the supernatant per well was transferred to another 96 well plate and mixed with 50 uL of 2% (w/v) p-dimethylaminobenzaldehyde in acetic acid. The yellow color derived from kynurenine was measured at 490 nm using a microplate reader. Percent inhibition of the test compounds was determined by measuring the decrease in kynurenine as compared to the control of DMSO vehicle, which was calculated by formula of (WC-WT)/WC, where WC is the mean absorbance of the control well minus blank well; WT is the mean absorbance of the test well minus the blank well. Data was analyzed by GraphPad Prism 5 and the IC50 values were obtained by non-linear regression.
as §1

T1 sequence (P48775 whole entry): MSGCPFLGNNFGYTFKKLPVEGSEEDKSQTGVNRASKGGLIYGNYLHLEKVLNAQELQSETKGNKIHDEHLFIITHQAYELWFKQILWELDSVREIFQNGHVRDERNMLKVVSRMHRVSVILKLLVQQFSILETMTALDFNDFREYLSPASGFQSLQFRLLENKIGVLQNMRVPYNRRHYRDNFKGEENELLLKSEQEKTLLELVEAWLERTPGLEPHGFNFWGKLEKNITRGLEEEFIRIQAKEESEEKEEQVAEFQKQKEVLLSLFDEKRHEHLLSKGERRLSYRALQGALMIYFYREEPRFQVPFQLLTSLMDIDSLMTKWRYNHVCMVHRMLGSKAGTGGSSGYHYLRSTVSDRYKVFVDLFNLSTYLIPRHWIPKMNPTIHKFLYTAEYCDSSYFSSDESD
T2 sequence (P14902 whole entry): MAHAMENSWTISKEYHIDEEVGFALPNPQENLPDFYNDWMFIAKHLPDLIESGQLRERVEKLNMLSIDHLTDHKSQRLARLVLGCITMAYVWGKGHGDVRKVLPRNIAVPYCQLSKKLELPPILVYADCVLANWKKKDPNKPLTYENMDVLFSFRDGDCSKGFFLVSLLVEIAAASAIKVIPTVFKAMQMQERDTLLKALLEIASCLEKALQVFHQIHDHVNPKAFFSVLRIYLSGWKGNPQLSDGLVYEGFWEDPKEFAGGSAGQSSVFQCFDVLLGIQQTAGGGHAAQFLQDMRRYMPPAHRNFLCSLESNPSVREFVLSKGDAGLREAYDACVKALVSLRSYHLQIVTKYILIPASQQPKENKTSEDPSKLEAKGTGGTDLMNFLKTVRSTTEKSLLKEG

IC50 [1] [nM]	IC50 [2] [nM]	Structure (SMILES)
> 5000	500 to 1000	CC(=O)N1C[C@H]2CC(C(O)c3cc(Cl)cc4cn[nH]c34)C[C@H]2C1 (stereo partly drawn) [Example 112, 1-((3aR,6aS)-5-((5-chloro-1H-indazol-7-yl)(hydroxy)methyl)hexahydrocyclopenta[c]pyrrol-2(1H)-yl)ethanone]
≤ 500	≤ 500	O=C(N[C@H]1[C@@H]2C[C@@](O)(c3cc(Cl)cc4[nH]ncc34)C[C@@H]21)c1cncc(C(F)(F)F)c1 [Example 182, N-((1R,3r,5S,6r)-3-(6-chloro-1H-indazol-4-yl)-3-hydroxybicyclo[3.1.0]hexan-6-yl)-5-(trifluoromethyl)nicotinamide]
≤ 500	1000 to 5000	CNS(=O)(=O)N1C[C@@H]2C[C@@](O)(c3cc(Cl)cc4[nH]ncc34)C[C@@H]2C1 [Example 87, (3aR,5r,6aS)-5-(6-chloro-1H-indazol-4-yl)-5-hydroxy-N-methylhexahydrocyclopenta[c]pyrrole-2(1H)-sulfonamide]
≤ 500	1000 to 5000	O=C(Nc1ccc(Cl)cc1)N1C[C@@H]2C[C@@](O)(c3cc(Cl)cc4[nH]ncc34)C[C@@H]2C1 [Example 165, (3aR,5r,6aS)-5-(6-chloro-1H-indazol-4-yl)-N-(4-chlorophenyl)-5-hydroxyhexahydrocyclopenta[c]pyrrole-2(1H)-carboxamide]
> 5000	> 5000	O=C(c1ccccc1)N1C[C@@H]2C[C@@](O)(c3cc(Cl)cc4cn[nH]c34)C[C@@H]2C1 [Example 98, ((3aR,5r,6aS)-5-(5-chloro-1H-indazol-7-yl)-5-hydroxyhexahydrocyclopenta[c]pyrrol-2(1H)-yl)(phenyl)methanone]
≤ 500	500 to 1000	O=C(N[C@H]1[C@@H]2C[C@@](O)(c3cc(Cl)cc4[nH]ncc34)C[C@@H]21)c1cc(F)cc(Cl)c1 [Example 152, 3-chloro-N-((1R,3r,5S,6r)-3-(6-chloro-1H-indazol-4-yl)-3-hydroxybicyclo[3.1.0]hexan-6-yl)-5-fluorobenzamide]
≤ 500	> 5000	CC(=O)N[C@H]1C[C@@H]2C[C@@](O)(c3cc(Cl)cc4[nH]ncc34)C[C@@H]2C1 [Example 167, N-((2r,3aR,5r,6aS)-5-(6-chloro-1H-indazol-4-yl)-5-hydroxyoctahydropentalen-2-yl)acetamide]
≤ 500	≤ 500	O=C(N[C@H]1[C@@H]2C[C@@](O)(c3cc(Cl)cc4[nH]ncc34)C[C@@H]21)c1ccc(F)c(Br)c1 [Example 176, 3-bromo-N-((1R,3r,5S,6r)-3-(6-chloro-1H-indazol-4-yl)-3-hydroxybicyclo[3.1.0]hexan-6-yl)-4-fluorobenzamide]
500 to 1000	1000 to 5000	CS(=O)(=O)N[C@H]1[C@@H]2C[C@@](O)(c3cc(Cl)cc4cn[nH]c34)C[C@@H]21 [Example 109, N-((1R,3r,5S,6r)-3-(5-chloro-1H-indazol-7-yl)-3-hydroxybicyclo[3.1.0]hexan-6-yl)methanesulfonamide]
≤ 500	1000 to 5000	Cn1cc(C(=O)N[C@H]2[C@@H]3C[C@@](O)(c4cc(Cl)cc5[nH]ncc45)C[C@@H]32)cn1 [Example 155, N-((1R,3r,5S,6r)-3-(6-chloro-1H-indazol-4-yl)-3-hydroxybicyclo[3.1.0]hexan-6-yl)-1-methyl-1H-pyrazole-4-carboxamide]
1000 to 5000	500 to 1000	O=C(N[C@H]1[C@@H]2C[C@@](O)(c3cc(Cl)cc4cn[nH]c34)C[C@@H]21)c1ccncc1 [Example 130, N-((1R,3r,5S,6r)-3-(5-chloro-1H-indazol-7-yl)-3-hydroxybicyclo[3.1.0]hexan-6-yl)isonicotinamide]
≤ 500	1000 to 5000	O=S(=O)(NC1CC1)N[C@H]1[C@@H]2C[C@@](O)(c3cc(Cl)cc4[nH]ncc34)C[C@@H]21 [Example 160, N′-cyclopropyl-N-((1R,3r,5S,6r)-3-(6-chloro-1H-indazol-4-yl)-3-hydroxybicyclo[3.1.0]hexan-6-yl)sulfuric diamide]
≤ 500	≤ 500	O=C(N[C@H]1[C@@H]2C[C@@](O)(c3cc(Cl)cc4[nH]ncc34)C[C@@H]21)c1cccc(Br)c1 [Example 146, 3-bromo-N-((1R,3r,5S,6r)-3-(6-chloro-1H-indazol-4-yl)-3-hydroxybicyclo[3.1.0]hexan-6-yl)benzamide]
≤ 500	> 5000	O=S(=O)(c1ccccc1)N1C[C@@H]2C[C@@](O)(c3cc(Cl)cc4[nH]ncc34)C[C@@H]2C1 [Example 35, (3aR,5r,6aS)-5-(6-chloro-1H-indazol-4-yl)-2-(phenylsulfonyl)octahydrocyclopenta[c]pyrrol-5-ol]
≤ 500	≤ 500	N#Cc1cccc(C(=O)N[C@H]2[C@@H]3C[C@@](O)(c4cc(Cl)cc5[nH]ncc45)C[C@@H]32)c1 [Example 144, N-((1R,3r,5S,6r)-3-(6-chloro-1H-indazol-4-yl)-3-hydroxybicyclo[3.1.0]hexan-6-yl)-3-cyanobenzamide]
≤ 500	500 to 1000	CCNS(=O)(=O)N[C@H]1[C@@H]2C[C@@](O)(c3cc(Cl)cc4[nH]ncc34)C[C@@H]21 [Example 128, N′-ethyl-N-((1R,3r,5S,6r)-3-(6-chloro-1H-indazol-4-yl)-3-hydroxybicyclo[3.1.0]hexan-6-yl)sulfuric diamide]
> 5000	> 5000	CC(=O)N1C[C@@H]2CN(c3c(C(F)(F)F)ccc4cncn34)C[C@@H]2C1(C)C (racemic) [Example 47, Racemic-1-((3aS,6aR)-1,1-dimethyl-5-(6-(trifluoromethyl)imidazo[1,5-a]pyridin-5-yl)hexahydropyrrolo[3,4-c]pyrrol-2(1H)-yl)ethanone]
≤ 500	1000 to 5000	N#CCC(=O)N[C@H]1[C@@H]2C[C@@](O)(c3cc(Cl)cc4[nH]ncc34)C[C@@H]21 [Example 137, N-((1R,3r,5S,6r)-3-(6-chloro-1H-indazol-4-yl)-3-hydroxybicyclo[3.1.0]hexan-6-yl)-2-cyanoacetamide]
≤ 500	500 to 1000	Cc1cc(C(=O)N[C@H]2[C@@H]3C[C@@](O)(c4cc(Cl)cc5[nH]ncc45)C[C@@H]32)no1 [Example 154, N-((1R,3r,5S,6r)-3-(6-chloro-1H-indazol-4-yl)-3-hydroxybicyclo[3.1.0]hexan-6-yl)-5-methylisoxazole-3-carboxamide]
≤ 500	> 5000	O=C(N[C@H]1[C@@H]2C[C@@](O)(c3cc(Cl)cc4[nH]ncc34)C[C@@H]21)c1cnon1 [Example 159, N-((1R,3r,5S,6r)-3-(6-chloro-1H-indazol-4-yl)-3-hydroxybicyclo[3.1.0]hexan-6-yl)-1,2,5-oxadiazole-3-carboxamide]
≤ 500	500 to 1000	O=C(N[C@H]1[C@@H]2C[C@@](O)(c3cc(Cl)cc4[nH]ncc34)C[C@@H]21)c1cccc(-c2ccccc2)c1 [Example 171, N-((1R,3r,5S,6r)-3-(6-chloro-1H-indazol-4-yl)-3-hydroxybicyclo[3.1.0]hexan-6-yl)-[1,1′-biphenyl]-3-carboxamide]
